Here are results for 5 compounds from paper PMC11351550, “Synthesis, Cytotoxicity and Antioxidant Activity Evaluation of Some Thiazolyl–Catechol Compounds” (Antioxidants, 2024).

Read-outs that look alike come from different tables or passages of the source.

Assay [1] has as its system normal human foreskin fibroblasts (BJ). Description: Alamar Blue cytotoxicity assay, BJ cells. The settings on record: for IC50: 48 h exposure, Alamar Blue. The assay is classed as cell-based. As to the method: (§1) BJ cells were maintained in Dulbecco’s modified Eagle’s medium (DMEM) with low glucose (1 g/L), while the A549 cells were seeded in DMEM with high glucose (5 g/L). All media were supplemented with 10% fetal bovine serum (FBS) and 1% Penicillin/Streptomycin. […] Cellular media were refreshed every other day. Cells were either subcultured or used in experiments once they reached a confluency of 80–90%.
(§2) The cytotoxicity of the synthesized compounds was evaluated by Alamar Blue (AB) assays performed on both cell lines, A549 and BJ, after a 48 h exposure, as previously reported.
(§3) Briefly, approximately 7000 A549 cells and 4000 normal BJ cells were seeded in 100 µL cellular media in 96-well plates to achieve a confluency of 70–80% at the end of the experiment and left to attach overnight before exposure. […] Post-exposure, the media were removed, and the AB assay was performed, with cells being incubated with a 200 µM solution of resazurin for 4 h. The obtained fluorescence was measured at λexcitation = 530/25; λemission = 590/35.
(§4) The experiments included three biological replicates, each one including three technical replicates. The negative control (NC) consisted of cells exposed to a cell culture medium containing 0.2% DMSO and was used for data normalization (100%).

The test system of assay [2] is human pulmonary malignant cells (A549). Kind of assay: Alamar Blue cytotoxicity assay, A549 cells. Conditions: for IC50: 48 h exposure, Alamar Blue, read-out: IC50 (±SD) A549; for Selectivity Index: ratio between the calculated IC50 on BJ and A549 cells, 48 h. Format: cell-based. As for the experimental part:
as §1, §2, §3, §4

Assay [3] can be described thus: Ferric-Reducing Antioxidant Potential (FRAP) assay. Format: biochemical. Conditions: pH 3.6, 593 nm. As for the experimental part: (§5) The stock solutions of the reference antioxidants (ascorbic acid, Trolox, EDTA-Na2) and compounds 3a–j were prepared by dissolving the solid powders in DMSO, obtaining 2 mM stock solutions. Following this, an additional set of solutions (0.2 mM) for each compound was obtained by dilution with DMSO. Absorption spectra of the tested compounds covering the range from 400 nm to 800 nm were recorded, indicating no absorption peaks near the wavelengths employed in the experiments. All measurements in the presented assays were made against blank samples. To quantify the activity of the compounds 3a–j, for the antiradical assays (DPPH and ABTS) and ferrous ion chelation, IC50 was calculated using Equation (1), while for the electron transfer assays (TAC, RP, FRAP and CUPRAC), the reference number of mole equivalent activity for each compound was calculated using Equation (2). (1) radical scavenging (%)=control absorbance−sample absorbance/control absorbance×100 (2) equivalents of control=sample absorbance/control absorbance
The Ferric-Reducing Antioxidant Potential (FRAP) assay relies on the transfer of an electron from the antioxidant being assessed to Fe^3+, resulting in its conversion to Fe^2+. The resulting Fe^2+ ions are then chelated by 2,4,6-tripyridyl-s-triazine, giving a blue-colored complex, with an absorption maximum at λ = 593 nm. A 500 µL amount of the solutions (0.2 mM) of compounds and reference compounds was mixed with 600 µL FRAP reagent and 1200 µL acetate buffer (0.3 M, pH = 3.6), according to previous reports. The resulting solutions were mixed well in the dark, and their absorbance was measured spectrophotometrically.

A short description of assay [4]: Reducing power (RP) assay. The assay is classed as biochemical. The settings on record: 50 °C, 20 min, pH 6.6. As for the experimental part:
as §5
In the reducing power (RP) assay, the tested compounds performed the reduction of ferric ions from potassium ferricyanide, forming ferrocyanide, which gives a blue complex. The protocol followed is an adaptation of previously reported methodologies. In glass test tubes, 1000 µL of solutions containing compounds and standards measured from the 0.2 mM stock solutions were mixed with 400 µL of phosphate buffer (0.2 M, pH = 6.6) and 400 µL of K3[Fe(CN)6] solution (1% w/v). The tubes were sealed and incubated for 20 min in a water bath at 50 °C. After cooling to room temperature, 500 µL of trichloroacetic acid (10% w/w) was added to all test tubes The resulting mixtures were left for 0.5 h at room temperature. Subsequently, 250 µL of the resulting solutions were mixed with 140 µL of FeCl3 solution (0.1% w/v) and 1000 µL of distilled water, and the absorbance of the resulting solutions was determined at λ = 695 nm.

A short description of assay [5]: Total Antioxidant Capacity (TAC) assay. Format: biochemical. Conditions: 95 °C, 1.5 h, 695 nm. As for the experimental part: as §5
The Total Antioxidant Capacity (TAC) assay was conducted following the methodology outlined in our previous publication, which was based on initial reports from the literature. A volume of 10 mL of the reagent (0.6 M H2SO4, 28 mM Na3PO4 and 4 mM (NH4)6Mo7O24) and 1000 µL of the compound and standard solutions dispensed from the 2 mM stock solutions were mixed in sealed glass test tubes and incubated in a water bath at 95 °C for 1.5 h. After cooling the test tubes to room temperature, 1000 µL of each solution was diluted with 1000 µL of water. The absorbance of the solutions was then measured at λ = 695 nm.

Assay [6] in a line: Ferrous ion chelation assay (ferrozine). Format: biochemical. Also on record: key: - represents negligible activity. As for the experimental part: as §5
To evaluate the ability of compounds to chelate ferrous ions, an assay was performed using an adaptation of Dinis et al.’s initial report. The solutions of the tested compounds (2 mM) were mixed well with 500 µL of FeSO4 (0.125 mM), and 500 µL of ferrozine 0.315 mM. After 10 min, the absorbance of the samples was determined spectrophotometrically at λ = 562 nm. EDTA-Na2 was used as a positive control, due to its exceptional ion chelation properties.

The nature of assay [7]: CUPRAC (CUPric-Reducing Antioxidant Capacity) assay. The settings on record: 30 min, 450 nm. Format: biochemical. As for the experimental part: as §5
The electron-donating capacity of compounds was assessed using the CUPRAC (CUPric-Reducing Antioxidant Capacity) method. The protocol for this assay is a modification of the reports of Alam et al., Özyürek et al., and Apak et al.. Volumes of 250 µL of CuCl2 10 mM, 1 mL of ammonium acetate buffer 1 M, and 250 µL of 7.5 mM neocuproine in ethanol were mixed with 125 µL of samples and reference compound solutions (0.2 mM). The mixtures were shaken for 30 min in the dark; after that, their absorbance was determined spectrophotometrically at λ = 450 nm.

The nature of assay [8]: ABTS radical cation decolorization assay. Format: biochemical. Conditions: 10 min, pH 7.4, 734 nm; read-out: IC50 against ABTS•+. As for the experimental part: as §5
The decolorization assay of the green ABTS^•+ (2,2′-azinobis-(3-ethylbenzothiazoline-6-sulfonic acid) to ABTS, based on the report of Re et al., was conducted following our group’s published report. The chemical stability of the ABTS^•+ reagent prior to use was checked at λ = 734 nm over one hour, ensuring a consistent absorption (approximately equal to 0.7). The reagent was prepared in potassium phosphate buffer (0.1 M, pH = 7.4) and activated overnight using MnO2 [17]. In all cuvettes, we added 100 μL of the tested compound solutions (0.2 mM) in increasing concentrations up to 200 µL and 2000 µL of the ABTS^•+ reagent. The resulting mixtures were thoroughly shaken for 10 min at room temperature, in the absence of light. The optical absorbance of the resulting mixtures was then measured by spectrophotometry at λ = 734 nm.

The nature of assay [9]: DPPH radical-scavenging assay. The assay is classed as biochemical. Conditions: 30 min in the dark, 517 nm; read-out: IC50 against DPPH•. As to the method:
as §5
The DPPH˙ (2,2-diphenyl-1-picrylhydrazyl) radical-scavenging assay, initially reported by Brand-Williams et al., relies on transferring a hydrogen atom from the antioxidant substrate being analyzed to the stable violet radical of DPPH˙. This action converts DPPH˙ into a nonradical stable yellow compound. The reduction in absorbance of the DPPH˙ at λ = 517 nm corresponds to the quantity of neutralized reagent. To perform the DPPH assay, we took 50, 75, 100, 125, and 150 µL of each sample from their 0.2 mM stock solutions, then we adjusted the volumes with DMSO to ensure all samples reached a uniform final volume. These solutions were mixed with 1 mL of DPPH reagent and incubated in the dark for 30 min, as presented in literature reports.
(The DPPH test is a chemical assay of radical scavenging.)

In general, IC50 refers to the concentration at which inhibition is half-maximal. For the compound `Cc1ccc(-c2nc(-c3nc(-c4ccc(O)c(O)c4)cs3)cs2)cc1` [Compound 3j, 4-(2′-(p-tolyl)-[2,4′-bithiazol]-4-yl)benzene-1,2-diol], the IC50 in assay [1] (Homo sapiens, Fibroblast) came out at 24.2 µM; in [2] (Homo sapiens, A549), 4.28 µM; in assay [8], 17.7 µM; in assay [9] it was 49.6 µM. In addition, in [2], the “Selectivity Index” value was 5.67. In addition, the “FRAP Eq Trolox” value in assay [3] was determined as 1.06 Eq Trolox. Moreover, the “RP Eq Ascorbic Acid” value in assay [4] turned out to be 1.81 Eq Ascorbic Acid. Further, in assay [4], the “RP Eq Trolox” value was found to be 1.50 Eq Trolox. In addition, in assay [5], the “TAC Eq Ascorbic Acid” value is 0.36 Eq Ascorbic Acid. The “ferrous ion chelation percent” value in assay [6] (0.25 µM), in assay [6] (0.5 µM), in assay [6] (1 µM), in assay [6] (1.5 µM) and in [6] (2 µM) was “-” throughout. Moreover, the “CUPRAC Eq Trolox” value in assay [7] was found to be 1.61 Eq Trolox.
Turning to `Oc1ccc(-c2csc(-c3ccncc3)n2)cc1O` [Compound 3g, 4-(2-(pyridin-4-yl)thiazol-4-yl)benzene-1,2-diol], the IC50 was over 100 µM in assay [1] (Homo sapiens, Fibroblast); 7.34 µM in [2] (Homo sapiens, A549); 7.59 µM in [8]; 36.7 µM in assay [9]. Also, the “decrease of viability of BJ cells” value in assay [1] (highest tested dose, 48 h) is “approximately 20%”. For the same compound, the “Selectivity Index” value in assay [2] is over 13.62. For the same compound, in assay [3], the “FRAP Eq Trolox” value is given as 1.63 Eq Trolox. Besides, the “RP Eq Ascorbic Acid” value in [4] came to 2.04 Eq Ascorbic Acid. For the same compound, in [4], the “RP Eq Trolox” value is 1.69 Eq Trolox. For the same compound, in assay [5], the “TAC Eq Ascorbic Acid” value worked out at 0.64 Eq Ascorbic Acid. Further, the “ferrous ion chelation percent” value in [6] (0.25 µM), in assay [6] (0.5 µM), in [6] (1 µM), in [6] (1.5 µM) and in [6] (2 µM) was “-” throughout. For the same compound, in [7], the “CUPRAC Eq Trolox” value is 3.60 Eq Trolox.
Consider `Oc1ccc(-c2csc(-c3ccccc3)n2)cc1O` [Compound 3b], for which the IC50 in [1] was 78.6 µM; in assay [2], 8.91 µM; in assay [8], 14 µM; in assay [9], 50.2 µM. Moreover, in [2], the “Selectivity Index” value was 8.82. Moreover, the “FRAP Eq Trolox” value in assay [3] stood at 1.07 Eq Trolox. Further, in assay [4], the “RP Eq Ascorbic Acid” value is listed as 1.60 Eq Ascorbic Acid. For the same compound, the “RP Eq Trolox” value in [4] came out at 1.33 Eq Trolox. Further, the “TAC Eq Ascorbic Acid” value in assay [5] amounted to 1.00 Eq Ascorbic Acid. Moreover, the “ferrous ion chelation percent” value in [6] (0.25 µM), in assay [6] (0.5 µM), in assay [6] (1 µM), in assay [6] (1.5 µM) and in assay [6] (2 µM) was “-” each time. Besides, the “CUPRAC Eq Trolox” value in [7] is on record as 2.27 Eq Trolox.
Take `Oc1ccc(-c2csc(-c3ccc(Br)cc3)n2)cc1O` [Compound 3d, 4-(2-(4-bromophenyl)thiazol-4-yl)benzene-1,2-diol]: the IC50 is 34.4 µM in assay [1] (Homo sapiens, Fibroblast); 6.08 µM in [2] (Homo sapiens, A549); 12.6 µM in assay [8]; 48.3 µM in assay [9]. Also, in [2], the “Selectivity Index” value is given as 5.66. In addition, in assay [3], the “FRAP Eq Trolox” value is 1.09 Eq Trolox. For the same compound, the “RP Eq Ascorbic Acid” value in assay [4] was 1.63 Eq Ascorbic Acid. For the same compound, the “RP Eq Trolox” value in assay [4] was 1.35 Eq Trolox. Moreover, in [5], the “TAC Eq Ascorbic Acid” value is on record as 0.71 Eq Ascorbic Acid. For the same compound, the “ferrous ion chelation percent” value in [6] (0.25 µM), in assay [6] (0.5 µM), in assay [6] (1 µM), in assay [6] (1.5 µM) and in assay [6] (2 µM) was “-” throughout. Moreover, in assay [7], the “CUPRAC Eq Trolox” value came to 2.62 Eq Trolox.
With `Oc1ccc(-c2csc(-c3csc(-c4ccccc4)n3)n2)cc1O` [Compound 3i, 4-(2′-phenyl-[2,4′-bithiazol]-4-yl)benzene-1,2-diol], the IC50 in assay [1] (Homo sapiens, Fibroblast) was 29.4 µM; in assay [2] (Homo sapiens, A549) it was 5.18 µM; in assay [8] it was 14.1 µM; in [9] it was 45.9 µM. Also, in [2], the “Selectivity Index” value is reported as 5.67. Moreover, the “FRAP Eq Trolox” value in [3] was 1.14 Eq Trolox. Besides, the “RP Eq Ascorbic Acid” value in [4] is 1.63 Eq Ascorbic Acid. In assay [4], the “RP Eq Trolox” value was 1.35 Eq Trolox. Also, the “TAC Eq Ascorbic Acid” value in assay [5] turned out to be 0.51 Eq Ascorbic Acid. In addition, the “ferrous ion chelation percent” value in assay [6] (0.25 µM), in assay [6] (0.5 µM), in [6] (1 µM), in assay [6] (1.5 µM) and in [6] (2 µM) was “-” each time. The “CUPRAC Eq Trolox” value in [7] is listed as 1.84 Eq Trolox.
